For one assay, the system named is K562/A02. Description: Antiproliferative activity against human K562/A02 cells overexpressing P-gp by MTT assay. Format: functional, cell-based.
Assay [1] can be described thus: Resistance index, ratio of IC50 for human K562/A02 cells to IC50 for human K562 cells. Format: functional. Set-up: reference not given here.
Assay [2] concerns the target T1, Protein deacetylase HDAC6 (Homo sapiens, UniProt Q9UBN7).
T1 sequence (Q9UBN7 whole entry): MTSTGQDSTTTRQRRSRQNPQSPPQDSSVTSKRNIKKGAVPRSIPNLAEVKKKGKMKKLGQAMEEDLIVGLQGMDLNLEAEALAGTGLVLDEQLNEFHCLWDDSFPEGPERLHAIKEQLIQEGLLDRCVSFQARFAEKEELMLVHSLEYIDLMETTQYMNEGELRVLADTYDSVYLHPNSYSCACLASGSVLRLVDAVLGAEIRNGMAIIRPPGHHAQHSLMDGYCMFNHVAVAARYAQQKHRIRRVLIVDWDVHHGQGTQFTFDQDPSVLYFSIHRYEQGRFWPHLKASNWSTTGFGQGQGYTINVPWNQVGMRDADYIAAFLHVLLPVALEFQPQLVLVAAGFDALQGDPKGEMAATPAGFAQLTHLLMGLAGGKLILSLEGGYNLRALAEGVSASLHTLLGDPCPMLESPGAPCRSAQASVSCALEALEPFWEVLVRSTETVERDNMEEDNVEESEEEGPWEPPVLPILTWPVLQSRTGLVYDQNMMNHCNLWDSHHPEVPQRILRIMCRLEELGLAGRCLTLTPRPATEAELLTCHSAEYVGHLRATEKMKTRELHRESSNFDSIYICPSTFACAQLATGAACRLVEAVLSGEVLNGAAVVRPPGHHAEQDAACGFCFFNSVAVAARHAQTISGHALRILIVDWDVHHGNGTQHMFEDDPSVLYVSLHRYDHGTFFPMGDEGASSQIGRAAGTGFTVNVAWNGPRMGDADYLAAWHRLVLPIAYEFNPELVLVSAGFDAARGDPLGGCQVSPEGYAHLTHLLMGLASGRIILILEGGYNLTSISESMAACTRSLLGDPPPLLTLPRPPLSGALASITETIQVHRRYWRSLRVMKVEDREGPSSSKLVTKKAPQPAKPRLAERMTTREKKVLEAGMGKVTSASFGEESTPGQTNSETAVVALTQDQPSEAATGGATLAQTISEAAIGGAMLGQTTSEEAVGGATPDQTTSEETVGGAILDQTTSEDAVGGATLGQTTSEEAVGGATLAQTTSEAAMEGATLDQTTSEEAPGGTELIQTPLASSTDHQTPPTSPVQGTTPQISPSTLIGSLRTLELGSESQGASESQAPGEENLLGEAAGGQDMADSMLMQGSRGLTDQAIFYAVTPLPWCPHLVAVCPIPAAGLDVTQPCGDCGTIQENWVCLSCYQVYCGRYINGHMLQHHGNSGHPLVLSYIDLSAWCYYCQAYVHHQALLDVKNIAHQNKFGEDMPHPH
The assay can be described thus: Inhibition of recombinant human HDAC6 using Boc-Lys(Ac)-AMC as substrate incubated for 60 mins by fluorimetric assay.

In the next assay the target is T2, Histone deacetylase 8 (Homo sapiens, UniProt Q9BY41).
T2 sequence (Q9BY41 whole entry): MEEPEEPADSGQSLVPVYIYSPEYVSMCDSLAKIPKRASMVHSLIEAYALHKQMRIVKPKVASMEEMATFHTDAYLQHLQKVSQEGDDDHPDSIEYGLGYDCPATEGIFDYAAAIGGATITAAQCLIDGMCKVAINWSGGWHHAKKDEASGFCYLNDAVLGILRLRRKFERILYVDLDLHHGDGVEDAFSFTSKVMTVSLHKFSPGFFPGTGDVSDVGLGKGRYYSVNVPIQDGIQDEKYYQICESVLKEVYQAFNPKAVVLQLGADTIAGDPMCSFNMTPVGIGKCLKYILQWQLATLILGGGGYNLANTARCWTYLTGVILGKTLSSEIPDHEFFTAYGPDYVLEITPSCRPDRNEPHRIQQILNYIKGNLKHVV
Description: Inhibition of recombinant human HDAC8 using Boc-Lys(Ac)-AMC as substrate incubated for 60 mins by fluorimetric assay.

In another assay the test system is K562. The assay can be described thus: Antiproliferative activity against human K562 cells by MTT assay. It counts as functional, cell-based. For orientation: Tetrazolium assays rely on reduction of a dye to a coloured formazan, in cell work by metabolically active cells.
Another assay concerns the target Histone deacetylase 1 (Homo sapiens, UniProt Q13547). Description: Inhibition of recombinant human HDAC1 using Boc-Lys(Ac)-AMC as substrate incubated for 60 mins by fluorimetric assay.

Molecules are shown by their SMILES.

Chain of Histone deacetylase 1 (Q13547 whole entry): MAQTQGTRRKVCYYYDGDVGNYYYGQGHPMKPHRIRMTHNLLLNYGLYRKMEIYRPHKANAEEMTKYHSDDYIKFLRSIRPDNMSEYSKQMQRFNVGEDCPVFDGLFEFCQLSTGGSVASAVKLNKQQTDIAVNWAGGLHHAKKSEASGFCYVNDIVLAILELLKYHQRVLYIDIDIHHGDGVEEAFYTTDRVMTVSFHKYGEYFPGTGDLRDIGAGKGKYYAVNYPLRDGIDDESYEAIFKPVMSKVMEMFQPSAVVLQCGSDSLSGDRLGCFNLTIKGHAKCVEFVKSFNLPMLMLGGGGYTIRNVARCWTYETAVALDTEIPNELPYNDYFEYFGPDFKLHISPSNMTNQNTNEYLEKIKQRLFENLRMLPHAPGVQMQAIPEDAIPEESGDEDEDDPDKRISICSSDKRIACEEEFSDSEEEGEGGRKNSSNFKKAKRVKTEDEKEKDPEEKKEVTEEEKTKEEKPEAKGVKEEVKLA

Turning to `C/C(=N\NC(=S)NCCCCCC(=O)NO)c1ccc(F)cc1`, the IC50 is 1020 nM with K562/A02; 62.9 nM in assay [2]; over 5000 nM on Histone deacetylase 8; 1890 nM with K562; 69.2 nM on Histone deacetylase 1. Further, in assay [1], the “Ratio IC50” value amounted to 0.54.

For the molecule `O=C(CCCCCNC(=S)N/N=C(\c1ccccc1)c1ccccn1)NO`, the values for the IC50 in the assay with K562/A02 and with K562 were 2030 nM and 2140 nM, respectively. Also, the “Ratio IC50” value in assay [1] is reported as 0.95.

In the case of `C/C(=N\NC(=S)NCCCC(=O)NO)c1ccc([N+](=O)[O-])cc1`, the IC50 in the assay on K562/A02 and in the assay on K562 was over 10000 nM throughout.

Take `COc1ccccc1/C(C)=N/NC(=S)NCCCC(=O)NO`: the IC50 in the assay with K562/A02 and in the assay with K562 was over 10000 nM each time.

For `O=C(CCCCCNC(=S)NN=C(c1ccccc1)c1ccccc1)NO`, the IC50 is 3640 nM with K562/A02 and 3810 nM in the assay on K562. For the same molecule, in assay [1], the “Ratio IC50” value was found to be 0.96.

Take `C/C(=N\NC(=S)NCCCCCC(=O)NO)c1cccc(Br)c1`: the IC50 is 520 nM with K562/A02; 37.7 nM in assay [2]; over 5000 nM on Histone deacetylase 8; 1260 nM with K562; 54.6 nM on Histone deacetylase 1. Moreover, the “Ratio IC50” value in assay [1] was 0.41.

Regarding `C/C(=N\NC(=S)NCCCC(=O)NO)c1cccc([N+](=O)[O-])c1`, the IC50 in the assay on K562/A02 and in the assay on K562 was over 10000 nM in each case.

Turning to `COc1ccccc1/C(=N/NC(=S)NCCCCCC(=O)NO)c1ccccc1`, the IC50 with K562/A02 was determined as 2910 nM; with K562 it was 3560 nM. In addition, in assay [1], the “Ratio IC50” value was 0.82.

For the molecule `COc1cccc2c1C(=O)c1c(O)c3c(c(O)c1C2=O)C[C@@](O)(C(=O)CO)C[C@@H]3O[C@H]1C[C@H](N)[C@H](O)[C@H](C)O1.Cl` [DOXORUBICIN HYDROCHLORIDE], the results for the IC50 in the assay with K562/A02 and in the assay with K562 were 23400 nM and 830 nM, respectively. In addition, in assay [1], the “Ratio IC50” value was 28.21.

As for `Cc1ccc(NC(=O)c2ccc(CN3CCN(C)CC3)cc2)cc1Nc1nccc(-c2cccnc2)n1` [IMATINIB], the IC50 with K562/A02 is 980 nM; in the assay with K562, 610 nM. For the same molecule, the “Ratio IC50” value in assay [1] stood at 1.61.

Consider `O=C(CCCCCNC(=S)N/N=C(\c1ccccc1)c1ccccc1[N+](=O)[O-])NO`, for which the results for the IC50 in the assay with K562/A02 and in the assay with K562 were 1310 nM and 2330 nM, respectively. The “Ratio IC50” value in assay [1] was found to be 0.56.

Take `O=C(CCCCCNC(=S)N/N=C(\c1ccccc1)c1ccccc1F)NO`: the figures for the IC50 with K562/A02 and with K562 were 6010 nM and 4630 nM, respectively. Moreover, the “Ratio IC50” value in assay [1] was 1.3.

Consider `Cc1ccc(/C(=N/NC(=S)NCCCCCC(=O)NO)c2ccccc2)cc1`, for which the IC50 with K562/A02 worked out at 3150 nM; in the assay on K562, 4340 nM. Besides, in assay [1], the “Ratio IC50” value was 0.73.

As for `COc1cccc(/C(C)=N/NC(=S)NCCCCCC(=O)NO)c1`, the results for the IC50 in the assay on K562/A02 and in the assay on K562 were 1890 nM and 1910 nM, respectively. Also, the “Ratio IC50” value in assay [1] was 0.98.

With `Cc1ccccc1/C(=N/NC(=S)NCCCCCC(=O)NO)c1ccccc1`, the results for the IC50 with K562/A02 and in the assay on K562 were 4220 nM and 3510 nM, respectively. In assay [1], the “Ratio IC50” value stood at 1.2.

`C/C(=N\NC(=S)NCCCCCC(=O)NO)c1cccc(C(F)(F)F)c1`: the figures for the IC50 in the assay on K562/A02 and in the assay with K562 were 890 nM and 1400 nM, respectively. Also, the “Ratio IC50” value in assay [1] came out at 0.64.

Turning to `O=C(CCCCCNC(=S)NN=C(c1ccccn1)c1ccccn1)NO`, the IC50 with K562/A02 turned out to be 2180 nM; in the assay with K562, 2870 nM. Besides, in assay [1], the “Ratio IC50” value is given as 0.76.

With `C/C(=N\NC(=S)NCCCCCC(=O)NO)c1cccc(C)c1`, the figures for the IC50 with K562/A02 and in the assay on K562 were 3570 nM and 3840 nM, respectively. Further, the “Ratio IC50” value in assay [1] was found to be 0.93.

`O=C(CCCCCCC(=O)Nc1ccccc1)NO` [VORINOSTAT] displayed an IC50 in the assay with K562/A02 of 3130 nM.

For `O=C(CCCCCNC(=S)N/N=C(\c1ccccc1)c1cccc([N+](=O)[O-])c1)NO`, the IC50 with K562/A02 is 940 nM; in assay [2], 46.8 nM; on Histone deacetylase 8, over 5000 nM; in the assay on K562, 1630 nM; at Histone deacetylase 1 it was 71.1 nM. Moreover, in assay [1], the “Ratio IC50” value turned out to be 0.58.

Regarding `O=C(CCCCCNC(=S)N/N=C(\c1ccccc1)c1ccc([N+](=O)[O-])cc1)NO`, the IC50 with K562/A02 was 4530 nM; in the assay with K562, 2890 nM. Besides, in assay [1], the “Ratio IC50” value came out at 1.57.

Turning to `CN(C)C(=S)NN=C(c1ccccn1)c1ccccn1`, the IC50 in the assay with K562/A02 is 3020 nM; in assay [2], over 5000 nM; on Histone deacetylase 8 it was over 5000 nM; with K562 it was 3430 nM; at Histone deacetylase 1, over 5000 nM. In assay [1], the “Ratio IC50” value is on record as 0.88.

By IC50 is commonly meant the midpoint of a concentration-inhibition curve.

Values taken from ChEMBL document CHEMBL4699612, “Discovery of thiosemicarbazone-containing compounds with potent anti-proliferation activity against drug-resistant K562/A02 cells” (Bioorg Med Chem Lett, 2020).
